Like-named read-outs stand apart in the source and are kept apart here.
Columns and labels:
PPARγ [1] = target: T1, PPARγ (Homo sapiens, UniProt P37231); assay: PPARγ transactivation assay (luciferase reporter) in transfected CV-1 cells; type: cell-based
T1 construct: expressed in transfected cells; host or cells: CV-1 cells (ATCC CCL-70)
T1 sequence (P37231 1-505): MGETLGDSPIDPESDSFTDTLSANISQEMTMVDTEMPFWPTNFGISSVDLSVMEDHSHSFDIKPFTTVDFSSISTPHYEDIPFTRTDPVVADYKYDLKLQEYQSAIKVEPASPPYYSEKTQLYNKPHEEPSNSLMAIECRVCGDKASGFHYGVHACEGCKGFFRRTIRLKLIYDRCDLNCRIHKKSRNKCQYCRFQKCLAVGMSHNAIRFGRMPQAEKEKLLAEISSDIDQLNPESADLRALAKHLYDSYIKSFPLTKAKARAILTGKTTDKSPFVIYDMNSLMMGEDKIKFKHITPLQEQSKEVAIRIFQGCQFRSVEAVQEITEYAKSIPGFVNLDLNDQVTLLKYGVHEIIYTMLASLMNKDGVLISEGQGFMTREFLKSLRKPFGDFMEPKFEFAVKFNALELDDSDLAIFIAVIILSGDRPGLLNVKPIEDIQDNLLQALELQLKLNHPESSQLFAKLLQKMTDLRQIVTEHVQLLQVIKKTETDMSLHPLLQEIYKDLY
Description: PPARγ activity was determined by transactivation assays in CV-1 cells (CCL-70 line from American Type Culture Collection (ATCC), Bethesda, Md.) transfected using the GenePorter transfection reagent (Gene Therapy Systems, San Diego, Calif.) to deliver 200 ng of a PPARγ expression plasmid and 1 μg of a luciferase reporter plasmid and 400 ng pCMVSport b-gal (Gibco, Grand Island, N.J.) as an internal control. 24 hr post-transfection, cells were treated with varying concentrations of the test compounds of this invention, and incubated for an additional 24 hr. Rosiglitazone and pioglitazone, a known PPARγ full agonist, and telmisartan, a known ARB and PPARγ partial agonist (Benson et al. Hypertension (2004) in press) are used as controls. Cell extracts were assayed for luciferase and β-galactosidase activity using Promega (Madison, Wis.) assay systems. All treatments were performed in triplicate, and normalized for β-galactosidase activity. Agonist concentrations yielding half maximal activation (EC50 values) were calculated using GraphPad Prism version 3.03 (GraphPad Software, Inc., San Diego, Calif.).

PPARγ [2] = target: T1, PPARγ; settings: Benson et al. Hypertension (2004) in press; cited from earlier work
[3] = type: in vivo, human
Description: A person with hypertension, hypertriglyceridemia, and type 2 diabetes was selected for therapy. […] The patient is taking another medication for type 2 diabetes but the dose of this medication is held constant throughout the trial. The patient is given telmisartan at an oral dose of 80 mg/day. […] The oral dose of telmisartan (Micardis®) is then increased to 160 mg/day. […] The telmisartan (Micardis®) therapy is continued according to the judgment of the clinician in order to maintain the improved control of the patient's blood pressure and their type 2 diabetes.

[4] = type: in vivo
Description: An obese person (BMI: 34.4 kg/m2, waist circumference: 51 inches) with untreated hypertension, pre-diabetes and the metabolic syndrome was given telmisartan (Micardis®), 80 mg/day, for treatment of high blood pressure. […] The patient has the metabolic syndrome as defined by the National Cholesterol Education Program (NCEP). The metabolic syndrome is associated with a 5-9 fold increase in the risk for developing type 2 diabetes and a 2-3 fold increase risk in cardiovascular mortality. […] After 5 weeks on valsartan (week 15), their glucose, insulin, triglyceride levels, and HOMA-IR score increased, consistent with a reversal in the improved insulin resistance obtained with telmisartan (Table 1). Valsartan was discontinued and they were switched back to telmisartan.

[5] = oral 80 mg/day, after three weeks
[6] = oral 160 mg/day, after seven weeks

## CCCc1nc2c(C)cc(Br)cc2n1CCOc1ccc(CC2SC(=O)NC2=O)cc1C(=O)O (stereo not drawn) [2-(2-(6-Bromo-4-methyl-2-propyl-1H-benzo[d]imidazol-1-yl)ethoxy)-5-((2,4-dioxothiazolidin-5-yl)methyl)benzoic acid]
PPARγ [1]; @ 0.1 uM
  PPAR-γ Fold activation: 3.8 x
PPARγ [1]; @ 1 μM
  PPAR-γ Fold activation: 10 x
PPARγ [1]; @ 10 μM
  PPAR-γ Fold activation: 15.5 x
PPARγ [1]; @ .01 uM
  PPAR-γ Fold activation: 1.7 x

## CCCCC1=NC2(CCCC2)C(=O)N1Cc1ccc(-c2ccccc2-c2nnn[nH]2)cc1 [Irbesartan, reference compound]
PPARγ [1]
  PPARγ activation: 2-3 fold

## COC(=O)c1cc(CC2SC(=O)NC2=O)ccc1OCCn1c(CCCCC2CCCCC2)nc2ccccc21 (stereo not drawn) [Methyl 2-(2-(2-(4-cyclohexylbutyl)-1H-benzo[d]imidazol-1-yl)ethoxy)-5-((2,4-dioxothiazolidin-5-yl)methyl)benzoate]
PPARγ [1]; @ 0.1 uM
  PPAR-γ Fold activation: 2 x
PPARγ [1]; @ 1 μM
  PPAR-γ Fold activation: 24 x
PPARγ [1]; @ 10 μM
  PPAR-γ Fold activation: 34 x
PPARγ [1]; @ .01 uM
  PPAR-γ Fold activation: 1 x

## CCCc1nc2c(C)cc(Br)cc2n1CCOc1ccc(CC2SC(=O)NC2=O)cc1C(=O)OC (stereo not drawn) [Methyl 2-(2-(6-bromo-4-methyl-2-propyl-1H-benzo[d]imidazol-1-yl)ethoxy)-5-((2,4-dioxothiazolidin-5-yl)methyl)benzoate]
PPARγ [1]; @ 0.1 uM
  PPAR-γ Fold activation: 3.1 x
PPARγ [1]; @ 1 μM
  PPAR-γ Fold activation: 32 x
PPARγ [1]; @ 10 μM
  PPAR-γ Fold activation: 41 x
PPARγ [1]; @ .01 uM
  PPAR-γ Fold activation: 1 x

## CCCc1nc2c(C)cc(-c3nc4ccccc4n3C)cc2n1Cc1ccc(-c2ccc(C(=O)O)cc2C(=O)O)cc1 [averysartan]
PPARγ [1]; concentration not given
  PPAR-γ Fold activation: No activity

## CCCc1nc2c(C)cc(-c3nc4ccccc4n3C)cc2n1Cc1ccc(-c2ccc(C(=O)OC)cc2C(=O)OC)cc1 [proaverysartan]
PPARγ [1]; @ 0.1 uM
  PPAR-γ Fold activation: 1 x
PPARγ [1]; @ 1 μM
  PPAR-γ Fold activation: 5 x
PPARγ [1]; @ 5 uM
  PPAR-γ Fold activation: 9 x
PPARγ [1]; @ 10 μM
  PPAR-γ Fold activation: 11 x

## CCCc1nc2c(C)cc(-c3nc4ccccc4n3C)cc2n1Cc1ccc(-c2ccccc2C(=O)O)cc1 [telmisartan]
PPARγ [2]
  activation of PPARγ: has been shown to activate PPARγ
[3]; [5]
  HDL cholesterol: 50 mg/dL
  blood pressure: 143/91
  fasting glucose: 188 mg/dL
  triglyceride: 281 mg/dL
[3]; [6]
  HDL cholesterol: 60 mg/dL
  blood pressure: 131/81
  glucose level: 145 mg/dL
  triglyceride level: 178 mg/dL
PPARγ [1]
  activation of the receptor relative to maximum level of activity achieved by the full agonists pioglitazone and rosiglitazone: 25%-30%
PPARγ [1]; tested at concentrations 1-5 mM
  PPARγ activation: 5-8 fold
[4]; 80 mg/day, throughout the observation period
  blood pressure: normalized and remained normal
[4]; 80 mg/day, up to week 10
  blood glucose, insulin and triglyceride concentrations: progressively decreased
  insulin resistance, HOMA-IR score: improvement in insulin resistance
[4]; human, in vivo
  fluid retention, peripheral edema, pulmonary edema, or congestive heart failure on clinical examination: no evidence of any increase
[4]; switched back from valsartan, following 4 weeks (week 19)
  insulin resistance and triglycerides: again improved

## CCCCC(=O)N(Cc1ccc(-c2ccccc2-c2nnn[nH]2)cc1)[C@H](C(=O)O)C(C)C [valsartan]
PPARγ [2]
  activation of PPARγ: does not activate PPARγ
[4]; 160 mg/day, after 5 weeks (week 15), after switch from telmisartan
  glucose, insulin, triglyceride levels, and HOMA-IR score: increased

## Methyl 5-((2,4-dioxothiazolidin-5-yl)methyl)-2-(2-(4-methyl-6-phenyl-2-propyl-1H-benzo[d]imidazol-1-yl)ethoxy)benzoate
PPARγ [1]; @ 0.1 uM
  PPAR-γ Fold activation: 1.2 x
PPARγ [1]; @ 1 μM
  PPAR-γ Fold activation: 6.1 x
PPARγ [1]; @ 10 μM
  PPAR-γ Fold activation: 7.4 x

From patent publication US20050020654A1, “Novel PPAR agonists, pharmaceutical compositions and uses thereof” (priority 2003, published 2005)
